From US8952024B2, “Herbicidal pyrimidone derivatives” (E I du Pont de Nemours and Company, priority 2009, dated 2015)
Like-named read-outs stand apart in the source and are kept apart here.

Experiments:
Assay in all cases: Test B pre-/postemergence plant response
Assay type in all cases: in vivo
[1] = test system: sunflower (common oilseed sunflower, Helianthus annuus); conditions: Preemergence
How it was run: (§1)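 Ratings reflect visual comparison with untreated controls 13 to 15 days after application, from 0 (no effect) to 100 (complete control). Application was preemergence to seeded loam/sand soil or postemergence to 1- to 4-leaf plants, with compound in a non-phytotoxic, surfactant-containing solvent.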

[2] = test system: pigweed (Amaranthus retroflexus); conditions: for pest or weed control at 31 g/ha: 31 g ai/ha; for pest or weed control at 125 g/ha: 125 g ai/ha
How it was run: as §1

[3] = test system: nightshade (eastern black nightshade, Solanum ptycanthum); conditions: Preemergence
How it was run: as §1

[4] = test system: galium (catchweed bedstraw, Galium aparine); conditions: Preemergence
How it was run: as §1

[5] = test system: woolly cupgrass (Eriochloa villosa); conditions: for pest or weed control at 31 g/ha: 31 g ai/ha; for pest or weed control at 125 g/ha: 125 g ai/ha
How it was run: as §1

[6] = test system: Italian ryegrass (Lolium multiflorum); conditions: for pest or weed control at 31 g/ha: 31 g ai/ha; for pest or weed control at 125 g/ha: 125 g ai/ha
How it was run: as §1

[7] = test system: lambsquarters (Chenopodium album); conditions: postemergence, 100 is complete control
How it was run: as §1

[8] = 31 g ai/ha, scale 0 to 100 (0 no effect, 100 complete control)
[9] = 62 g ai/ha, scale 0 to 100, 0 no effect, 100 complete control
[10] = 125 g ai/ha, scale 0 to 100, 0 no effect, 100 complete control
[11] = 62 g ai/ha, postemergence, 0 is no effect, 100 is complete control, 13 to 15 days
[12] = Preemergence, 250 g ai/ha, 0 to 100 scale

For `COCCCn1c(-c2ccccc2)ncc(C(=O)C2=C(O)CCCC2=O)c1=O` [Compound 81, 5-[(2-hydroxy-6-oxo-cyclohexen-1-yl)carbonyl]-3-(3-methoxypropyl)-2-phenyl-4(3H)-pyrimidinone], the “Plant response rating, Sunflower” value [1, 8] was 60, the “Plant response rating, Sunflower” value [1, 9] was 75 and the “Plant response rating, Sunflower” value [1, 10] was 85. The “Sunflower plant response rating” value ([1]; 250 g ai/ha, 0 to 100 scale) was 90, the “Pigweed plant response rating (0 to 100 scale)” value [2, 11] was 100 and the pest or weed control at 31 g/ha ([2]; Amaranthus retroflexus, post-emergence, postemergence, scale 0 to 100, 0 is no effect, 100 is complete control, read-out: Plant response rating, Pigweed) was 98%. For the same compound, the pest or weed control at 125 g/ha ([2]; Amaranthus retroflexus, post-emergence, Postemergence, visual rating after 13 to 15 days, scale 0 (no effect) to 100 (complete control)) was 100%, the pest or weed control at 250 g/ha ([2]; Amaranthus retroflexus, post-emergence, Postemergence, 250 g ai/ha, scale 0 to 100 (0 no effect, 100 complete control), read-out: Plant response rating, Pigweed) was 100% and the pest or weed control at 31 g/ha ([2]; Amaranthus retroflexus, pre-emergence, Preemergence, scale 0 to 100 (0 no effect, 100 complete control), read-out: Plant response rating, Pigweed) was 100%. For the same compound, the pest or weed control at 62 g/ha ([2]; Amaranthus retroflexus, pre-emergence, Preemergence, 62 g ai/ha, scale 0 to 100 (0 no effect, 100 complete control), read-out: Plant response rating, Pigweed) was 100%, the pest or weed control at 125 g/ha ([2]; Amaranthus retroflexus, pre-emergence, Preemergence, scale 0 to 100, 0 no effect, 100 complete control, read-out: Plant response rating, Pigweed) was 100% and the “Pigweed plant response rating” value [2, 12] was 100. The “Plant response rating, Nightshade” value [3, 8] was 98, the “Plant response rating, Nightshade” value [3, 9] was 98 and the “Plant response rating, Nightshade” value [3, 10] was 98. For the same compound, the “Nightshade plant response rating” value ([3]; 250 g ai/ha, 0 to 100 scale) was 100, the “Plant response rating, Galium” value [4, 8] was 85 and the “Plant response rating, Galium” value [4, 9] was 100. The “Plant response rating, Galium” value [4, 10] was 100, the “Galium plant response rating” value ([4]; 250 g ai/ha, 0 to 100 scale) was 100 and the “Cupgrass, Woolly plant response rating (0 to 100 scale)” value [5, 11] was 75. The pest or weed control at 31 g/ha ([5]; Eriochloa villosa, post-emergence, postemergence, scale 0 to 100, 0 is no effect, 100 is complete control, read-out: Plant response rating, Cupgrass, Woolly) was 65%, the pest or weed control at 125 g/ha ([5]; Eriochloa villosa, post-emergence, Postemergence, visual rating after 13 to 15 days, scale 0 (no effect) to 100 (complete control)) was 90% and the pest or weed control at 250 g/ha ([5]; Eriochloa villosa, post-emergence, Postemergence, 250 g ai/ha, scale 0 to 100 (0 no effect, 100 complete control), read-out: Plant response rating, Cupgrass, Woolly) was 90%. The pest or weed control at 31 g/ha ([5]; Eriochloa villosa, pre-emergence, Preemergence, scale 0 to 100 (0 no effect, 100 complete control), read-out: Plant response rating, Cupgrass, Woolly) was 40%, the pest or weed control at 62 g/ha ([5]; Eriochloa villosa, pre-emergence, Preemergence, 62 g ai/ha, scale 0 to 100, 0 no effect, 100 complete control, read-out: Plant response rating, Cupgrass, Woolly) was 55% and the pest or weed control at 125 g/ha ([5]; Eriochloa villosa, pre-emergence, Preemergence, scale 0 to 100, 0 no effect, 100 complete control, read-out: Plant response rating, Cupgrass, Woolly) was 75%. The “Cupgrass, Woolly plant response rating” value [5, 12] was 85, the “Ryegrass, Italian plant response rating (0 to 100 scale)” value [6, 11] was 5 and the pest or weed control at 31 g/ha ([6]; Lolium multiflorum, post-emergence, postemergence, scale 0 to 100, 0 is no effect, 100 is complete control, read-out: Plant response rating, Ryegrass, Italian) was 0%. The pest or weed control at 125 g/ha ([6]; Lolium multiflorum, post-emergence, Postemergence, visual rating after 13 to 15 days, scale 0 (no effect) to 100 (complete control)) was 45%, the pest or weed control at 250 g/ha ([6]; Lolium multiflorum, post-emergence, Postemergence, 250 g ai/ha, scale 0 to 100 (0 no effect, 100 complete control), read-out: Plant response rating, Ryegrass, Italian) was 55% and the pest or weed control at 31 g/ha ([6]; Lolium multiflorum, pre-emergence, Preemergence, scale 0 to 100 (0 no effect, 100 complete control), read-out: Plant response rating, Ryegrass, Italian) was 0%. For the same compound, the pest or weed control at 62 g/ha ([6]; Lolium multiflorum, pre-emergence, Preemergence, 62 g ai/ha, scale 0 to 100 (0 no effect, 100 complete control), read-out: Plant response rating, Ryegrass, Italian) was 0%, the pest or weed control at 125 g/ha ([6]; Lolium multiflorum, pre-emergence, Preemergence, scale 0 to 100, 0 no effect, 100 complete control, read-out: Plant response rating, Ryegrass, Italian) was 0% and the “Ryegrass, Italian plant response rating” value [6, 12] was 0. The “Lambsquarters plant response rating (0 to 100 scale)” value ([7]; 62 g ai/ha, 0 is no effect, 13 to 15 days) was 98 and the pest or weed control at 31 g/ha ([7]; Chenopodium album, post-emergence, 31 g ai/ha, scale 0 to 100, 0 is no effect, read-out: Plant response rating, Lambsquarters) was 95%.
